≈ marks a conversion by molar mass, not a printed value. Read-outs that look alike come from different tables or passages of the source.
What was measured:
[1] = biological target: α-glucosidase from Saccharomyces cerevisiae (Saccharomyces cerevisiae, UniProt P53341); experiment: biochemical
Procedure: The α-glucosidase inhibitory effects of diphenylquinoxaline-6-carbohydrazide hybrids 7a–o were determined by previously reported method. […] Later on, 25 μL of the substrate (p-nitrophenyl glucopyranoside, 4 mM) was added to each well of the plate, and incubation was continued for 20 min at 37 ^◦C.

α-glucosidase [2] = biological target: α-glucosidase; design: method as in PMID 24398385; conditions: cited from earlier work
α-glucosidase [3] = biological target: α-glucosidase; design: method as in doi:10.1039/C9NJ02580D; conditions: compound A versus standard acarbose; cited from earlier work
α-glucosidase [4] = biological target: α-glucosidase (Saccharomyces cerevisiae, UniProt P53341); experiment: Enzyme kinetic studies (Lineweaver–Burk plot, secondary plot); type: biochemical
α-glucosidase (Saccharomyces cerevisiae, UniProt P53341), sequence (P53341 whole entry): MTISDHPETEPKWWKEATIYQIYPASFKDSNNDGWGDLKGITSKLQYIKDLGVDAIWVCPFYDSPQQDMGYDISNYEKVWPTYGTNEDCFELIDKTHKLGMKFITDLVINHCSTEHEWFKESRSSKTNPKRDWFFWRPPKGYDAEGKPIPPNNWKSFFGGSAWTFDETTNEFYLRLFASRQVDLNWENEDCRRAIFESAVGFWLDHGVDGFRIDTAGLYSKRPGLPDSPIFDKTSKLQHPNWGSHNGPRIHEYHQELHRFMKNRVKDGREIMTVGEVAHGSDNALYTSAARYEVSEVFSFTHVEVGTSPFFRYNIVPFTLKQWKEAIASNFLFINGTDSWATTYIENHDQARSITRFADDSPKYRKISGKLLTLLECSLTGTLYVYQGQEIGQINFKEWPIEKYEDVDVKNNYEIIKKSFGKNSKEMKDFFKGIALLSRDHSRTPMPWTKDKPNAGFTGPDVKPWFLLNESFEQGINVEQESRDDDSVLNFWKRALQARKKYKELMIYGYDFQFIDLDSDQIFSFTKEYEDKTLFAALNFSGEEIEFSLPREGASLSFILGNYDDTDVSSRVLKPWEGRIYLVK
Procedure: A Lineweaver–Burk plot was generated to identify the type of inhibition and the Michaelis–Menten constant (Km) value was determined from the plot between reciprocal of the substrate concentration (1/[S]) and reciprocal of enzyme rate (1/V) over various inhibitor concentrations. The experimental inhibitor constant (Ki) value was constructed by secondary plots of the inhibitor concentration [I] versus Km.

α-glucosidase from Saccharomyces cerevisiae, sequence (P53341 whole entry): as above

Compound	melting point	IC50 [1]	further results
O=C(NN=Cc1cccc([N+](=O)[O-])c1)c1ccc2nc(-c3ccccc3)c(-c3ccccc3)nc2c1 [7c, N'-(3-nitrobenzylidene)-2,3-diphenylquinoxaline-6-carbohydrazide]	> 250 °C	279 ± 5.8 µM	–
O=C(NN=Cc1cc2c(cc1[N+](=O)[O-])OCO2)c1ccc2nc(-c3ccccc3)c(-c3ccccc3)nc2c1 [7m, N'-((6-nitrobenzo[d][1,3]dioxol-5-yl)methylene)-2,3-diphenylquinoxaline-6-carbohydrazide]	> 250 °C	353.7 ± 3.5 µM	–
O=C(N/N=C1/c2ccccc2-c2nc3ccccc3nc21)c1ccc(Br)cc1 [compound B]	–	–	IC50 (α-glucosidase [2]; compound B versus standard acarbose): 22.67 ± 0.1 µM
O=C(NN=Cc1ccccc1[N+](=O)[O-])c1ccc2nc(-c3ccccc3)c(-c3ccccc3)nc2c1 [7b, N'-(2-nitrobenzylidene)-2,3-diphenylquinoxaline-6-carbohydrazide]	> 250 °C	175 ± 5.9 µM	–
COc1cc(/C=N/NC(=O)c2ccc3nc(-c4ccccc4)c(-c4ccccc4)nc3c2)cc(OC)c1OC [7k, (E)-2,3-diphenyl-N'-(3,4,5-trimethoxybenzylidene)quinoxaline-6-carbohydrazide]	–	> 750 µM	–
Cc1ccc(NC(=O)Cn2c(=O)c(C)nc3ccccc32)c([N+](=O)[O-])c1 [compound C]	–	–	IC50 (α-glucosidase [2]; compound C versus standard acarbose): 83.8 ± 0.89 µM
O=C(NN=Cc1ccc([N+](=O)[O-])cc1)c1ccc2nc(-c3ccccc3)c(-c3ccccc3)nc2c1 [7d, N'-(4-nitrobenzylidene)-2,3-diphenylquinoxaline-6-carbohydrazide]	> 250 °C	240 ± 7.5 µM	–
O=C(NN=Cc1ccc(Cl)cc1)c1ccc2nc(-c3ccccc3)c(-c3ccccc3)nc2c1 [7f, N'-(4-chlorobenzylidene)-2,3-diphenylquinoxaline-6-carbohydrazide]	234 to 238 °C	260 ± 4.5 µM	–
Cc1nc2ccccc2n(CC(=O)N/N=C/c2ccc(OCCc3cn(CN4CCOCC4)nn3)cc2)c1=O [compound A]	–	–	IC50 (α-glucosidase [3]): 21.92 µg/mL (≈ 41.3 µM)
O=C(NN=Cc1ccccc1)c1ccc2nc(-c3ccccc3)c(-c3ccccc3)nc2c1 [7a, N'-benzylidene-2,3-diphenylquinoxaline-6-carbohydrazide]	230 to 232 °C	155 ± 3 µM	–
O=C(NN=Cc1cccc2ccccc12)c1ccc2nc(-c3ccccc3)c(-c3ccccc3)nc2c1 [7n, N'-(naphthalen-1-ylmethylene)-2,3-diphenylquinoxaline-6-carbohydrazide]	> 250 °C	388 ± 6.5 µM	–
O=C(NN=Cc1cc([N+](=O)[O-])ccc1Cl)c1ccc2nc(-c3ccccc3)c(-c3ccccc3)nc2c1 [7i, N'-(2-chloro-5-nitrobenzylidene)-2,3-diphenylquinoxaline-6-carbohydrazide]	> 250 °C	231 ± 5.5 µM	–
O=C(NN=Cc1cccc(Oc2ccccc2)c1)c1ccc2nc(-c3ccccc3)c(-c3ccccc3)nc2c1 [7l, N'-(3-phenoxybenzylidene)-2,3-diphenylquinoxaline-6-carbohydrazide]	> 250 °C	453 ± 4.7 µM	–
O=C(NN=Cc1cccs1)c1ccc2nc(-c3ccccc3)c(-c3ccccc3)nc2c1 [7o, 2,3-diphenyl-N'-(thiophen-2-ylmethylene)quinoxaline-6-carbohydrazide]	242 to 246 °C	145 ± 5 µM	–
COc1ccc(C=NNC(=O)c2ccc3nc(-c4ccccc4)c(-c4ccccc4)nc3c2)cc1 [7g, N'-(4-methoxybenzylidene)-2,3-diphenylquinoxaline-6-carbohydrazide]	> 250 °C	320 ± 4.9 µM	–
COc1cc(C=NNC(=O)c2ccc3nc(-c4ccccc4)c(-c4ccccc4)nc3c2)ccc1O [7j, N'-(4-hydroxy-3-methoxybenzylidene)-2,3-diphenylquinoxaline-6-carbohydrazide]	> 250 °C	358 ± 6.1 µM	–
COc1cccc(C=NNC(=O)c2ccc3nc(-c4ccccc4)c(-c4ccccc4)nc3c2)c1[N+](=O)[O-] [7h, N'-(3-methoxy-2-nitrobenzylidene)-2,3-diphenylquinoxaline-6-carbohydrazide]	> 250 °C	305 ± 7.2 µM	–
O=C(NN=Cc1cccc(F)c1)c1ccc2nc(-c3ccccc3)c(-c3ccccc3)nc2c1 [7e, N'-(3-fluorobenzylidene)-2,3-diphenylquinoxaline-6-carbohydrazide]	> 250 °C	–	type of inhibition (α-glucosidase [4]; Lineweaver–Burk plot, Km increased, Vmax unchanged): competitive; Ki (α-glucosidase [4]; secondary plot of Km versus inhibitor concentration (0, 30, 70 and 110 µM), read-out: inhibition constant Ki): 107 µM; IC50 ([1]; in vitro α-glucosidase inhibition, substrate p-nitrophenyl glucopyranoside, mean ± SEM, at least three experiments, read-out: IC50): 111 ± 6 µM

Reference: PMC9341091, “Design, synthesis, and molecular docking studies of diphenylquinoxaline-6-carbohydrazide hybrids as potent α-glucosidase inhibitors” (BMC Chemistry, 2022)
